Where two headings read alike, the source gives them in different places.
Columns and labels:
[1] = test system: EKVX; assay: NCI-60 five-dose SRB assay; assay type: cell-based; settings: Homo sapiens, non-small cell lung cancer
[2] = target: DDR1 (Homo sapiens, UniProt Q08345); assay: Kinase selectivity test against DDR1; assay type: biochemical
Procedure: On the other hand, to gain certain insights about the kinase selectivity of this array of ureidobenzothiazoles, compounds 2a and 2b were tested against DDR1 (Figure 4). Discoidin domain receptors (DDR1/2) are transmembrane receptor tyrosine kinases (RTKs), activated by fibrillar collagens. DDR1/2 and BCR-ABL share almost 61% sequence similarities in their ATP binding domains. […] This observation points out the merit of these ureidobenzothiazoles over the known BCR-ABL inhibitors in achieving exceptional selectivity towards BCR-ABL.

[3] = test system: OVCAR-5; parameters: method as in earlier work; settings: imatinib mesylate NSC 743414, NCI data; cited from earlier work
[4] = test system: EKVX; parameters: method as in earlier work; settings: imatinib mesylate NSC 743414, NCI data; cited from earlier work
[5] = test system: DU-145; parameters: method as in earlier work; settings: imatinib mesylate NSC 743414, NCI data; cited from earlier work
[6] = test system: SK-MEL-28; parameters: method as in earlier work; settings: imatinib mesylate NSC 743414, NCI data; cited from earlier work
[7] = test system: OVCAR-4; parameters: method as in earlier work; settings: imatinib mesylate NSC 743414, NCI data; cited from earlier work

Sequence of DDR1 (Q08345 19-913, species assumed): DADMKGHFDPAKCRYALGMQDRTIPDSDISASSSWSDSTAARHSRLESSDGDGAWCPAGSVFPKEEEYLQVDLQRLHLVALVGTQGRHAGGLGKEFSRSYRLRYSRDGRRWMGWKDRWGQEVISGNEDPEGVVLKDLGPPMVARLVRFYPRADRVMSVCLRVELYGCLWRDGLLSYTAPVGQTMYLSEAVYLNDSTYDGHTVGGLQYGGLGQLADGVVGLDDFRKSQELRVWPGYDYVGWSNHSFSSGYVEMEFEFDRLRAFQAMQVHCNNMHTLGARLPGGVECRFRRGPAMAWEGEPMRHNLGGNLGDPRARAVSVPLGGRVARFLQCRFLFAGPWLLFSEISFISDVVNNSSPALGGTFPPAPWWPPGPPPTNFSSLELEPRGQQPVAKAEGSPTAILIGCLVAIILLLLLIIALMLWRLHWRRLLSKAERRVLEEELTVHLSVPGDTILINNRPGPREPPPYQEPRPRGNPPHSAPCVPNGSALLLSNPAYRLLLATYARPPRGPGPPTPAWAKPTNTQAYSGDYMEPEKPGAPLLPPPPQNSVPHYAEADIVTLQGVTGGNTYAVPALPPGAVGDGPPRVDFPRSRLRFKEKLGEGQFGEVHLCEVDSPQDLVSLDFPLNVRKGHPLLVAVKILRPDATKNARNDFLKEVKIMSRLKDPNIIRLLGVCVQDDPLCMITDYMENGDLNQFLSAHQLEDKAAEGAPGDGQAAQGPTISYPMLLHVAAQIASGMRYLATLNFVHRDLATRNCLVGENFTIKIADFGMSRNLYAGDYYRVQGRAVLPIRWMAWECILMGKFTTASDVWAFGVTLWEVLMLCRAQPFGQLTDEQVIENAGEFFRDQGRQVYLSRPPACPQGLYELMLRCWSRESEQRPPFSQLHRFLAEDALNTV

| Compound | GI50 [1] | IC50 [2] | GI50 [3] | GI50 [4] | GI50 [5] | GI50 [6] | GI50 [7] |
| --- | --- | --- | --- | --- | --- | --- | --- |
| CCN1CCN(c2ccc(NC(=O)Nc3nc4ccc(-c5ccccc5OC)cc4s3)cc2)CC1 [Compound 2b] | 1.51 µM | 0.199 µM | – | – | – | – | – |
| Cc1ccc(NC(=O)c2ccc(CN3CCN(C)CC3)cc2)cc1Nc1nccc(-c2cccnc2)n1 [Imatinib] | – | – | 0.58 µM | 26.2 µM | 18.8 µM | 14.6 µM | 20 µM |

Source: article PMC10026764, “Overcoming the imatinib-resistant BCR-ABL mutants with new ureidobenzothiazole chemotypes endowed with potent and broad-spectrum anticancer activity” (Journal of Enzyme Inhibition and Medicinal Chemistry, 2023)
